The source of these data is US20130096123A1, “RADIATION SENSITISER COMPOSITIONS” (EUPHARMA PTY LTD, priority 2010, published 2013).

One data set in a line: physchem. The format is physicochemical. The method, then:
A large number of these exist but in this formulation Hydroxypropyl beta Cyclodextrin (HPbCD) is used. HPbCD also assists masking the taste of the drug.
A solubility increase of above 10 fold is achieved and the room temperature solubility of nimorazole may be increased to the more dose convenient level of 100 mg/ml.
HPbCD complexes with nimorazole over a wide molar ratio, in this example the lower ratio of […] is used, therefore 226 g of nimorazole is used with 1400 g of HPbCD.

For data set [1] the following is noted: cited from earlier work.

In brackets after ≈: the same amount, converted by molar mass.

In general, solubility refers to the dissolved amount per volume that the medium holds. Usually pKa stands for the negative logarithm of the acid dissociation constant. Consider `O=[N+]([O-])c1cncn1CCN1CCOCC1` [Nimorazole, nimorazole], for which the solubility increase entry in “physchem” was “above 10 fold”. In “physchem” (aqueous with cosolvent or surfactant or cyclodextrin), this compound returned a solubility of 100 mg/mL (≈ 442 mM). The pKa in data set [1] was 5.2.
